# Test results reported in PMC10347545 (Journal of the American Chemical Society, 2023).
# Assays:
# PPARγ-RXRα heterodimer = PPARγ-RXRα heterodimer formation assay; type: biochemical
# [1] = tested on: genes comprising a PPAR response element; conditions: cited from earlier work
# FOXO = assay: FoxO response element; type: cell-based; conditions: HepG2 cells, over time
# PPARγ LBD [2] = biological target: T1, PPARγ LBD (Homo sapiens, UniProt P37231); assay: MS-based PPARγ ligand binding assay; conditions: 0.2–4 μM, absence and presence of 1 μM pioglitazone
# T1 sequence (P37231 238-503 limits assumed): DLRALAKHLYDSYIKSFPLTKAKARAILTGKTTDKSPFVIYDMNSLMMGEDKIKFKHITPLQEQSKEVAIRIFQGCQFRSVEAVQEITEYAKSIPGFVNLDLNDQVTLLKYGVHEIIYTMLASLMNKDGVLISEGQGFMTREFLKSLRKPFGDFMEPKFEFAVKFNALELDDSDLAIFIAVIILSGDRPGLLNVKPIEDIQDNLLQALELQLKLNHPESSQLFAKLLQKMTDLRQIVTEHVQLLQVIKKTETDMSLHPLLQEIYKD
# [3] = tested on: human adipocyte-derived stem cells (ASC; ASC52telo, hTERT); assay: Adipocyte-derived stem cell differentiation; type: cell-based
# FOXO3a = FOXO3a Ser253 phosphorylation; type: cell-based; conditions: 20 μM, 16 h
# PPARγ LBD [4] = biological target: T1, PPARγ LBD; type: binding
# nuclear receptors = assay: Selectivity profiling in Gal4-hybrid reporter gene assays; type: cell-based, human; conditions: 100 μM
# [5] = tested on: human PPAR response element (PPRE); assay: PPRE reporter assay in HepG2 cells; type: cell-based
# COS7 cells = assay: Toxicity assay; type: cell-based; conditions: up to 100 μM, 24 h
# PPARγ LBD [6] = biological target: T1, PPARγ LBD; type: biochemical
# HepG2 cells = assay: Differential gene expression; type: cell-based; conditions: 20 μM
smiles,measurement,setting,value
"CCc1ccc(CCOc2ccc(CC3SC(=O)NC3=O)cc2)nc1 (centres unmarked) [pioglitazone, reference compound]",PPARγ:RXR heterodimerization,PPARγ-RXRα heterodimer,enhanced
same,FOXO signaling-related gene expression,[1],no effect
O=C(O)CSc1nc(Cl)cc(Nc2cccc(OCCc3ccccc3)c2)n1 [compound 2],transcriptional activity of FOXO (FHRE activity),FOXO,diminished
same,PPARγ:RXR heterodimerization,PPARγ-RXRα heterodimer,decreased heterodimer formation
same,dimer stabilization by pioglitazone,PPARγ-RXRα heterodimer,abrogated
same,binding of 2 to the PPARγ LBD,PPARγ LBD [2],dose-dependent manner
same,pioglitazone-induced adipogenesis,[3],diminished
same,adipogenesis (ASC differentiation),[3]; 50 μM,did not cause adipogenesis
same,phosphorylation of FOXO3a at Ser253,FOXO3a,promoted phosphorylation
same,thermal stabilization of the PPARγ LBD,PPARγ LBD [4],additive thermal stabilization
same,agonism / antagonism on nuclear receptors,nuclear receptors,neither revealed agonism nor antagonistic effects
same,transcriptional activity via PPRE,[5]; alone,induced transcriptional activity
same,pioglitazone-mediated PPRE activation,[5]; with pioglitazone,enhanced pioglitazone-mediated PPRE activation
same,"cytotoxic effects (apoptosis, necrosis)",COS7 cells,no cytotoxic effects
same,CBP-1 recruitment,PPARγ LBD [6],displaced
same,DRIP2 recruitment,PPARγ LBD [6],displaced
same,NCOR recruitment,PPARγ LBD [6],enhanced binding
same,NCoA6 recruitment,PPARγ LBD [6],weaker recruitment
same,PGC-1α recruitment,PPARγ LBD [6],weaker recruitment
same,SMRT recruitment,PPARγ LBD [6],enhanced binding
same,canonical PPAR signaling (gene expression),HepG2 cells,no induction
same,number of protein coding genes with significantly altered expression,"HepG2 cells; p-value <0.05, |log2(fold change)| > 1",1750
"CC1(C)CCC(C)(C)c2cc(C3(c4ccc(C(=O)O)cc4)OCCO3)ccc21 [SR11237, reference compound]",PPARγ:RXR heterodimerization,PPARγ-RXRα heterodimer,enhanced
